These results are taken from patent publication US8546613B2, “SGK1 inhibitors for the prophylaxis and/or therapy of viral diseases and/or carcinomas” (priority 2008, dated 2013).

A value given as a limit tells only on which side of the number the result lay.

In one assay the target is T1, SGK1 protein kinase (Homo sapiens, UniProt O00141).
T1 sequence (O00141 1-431): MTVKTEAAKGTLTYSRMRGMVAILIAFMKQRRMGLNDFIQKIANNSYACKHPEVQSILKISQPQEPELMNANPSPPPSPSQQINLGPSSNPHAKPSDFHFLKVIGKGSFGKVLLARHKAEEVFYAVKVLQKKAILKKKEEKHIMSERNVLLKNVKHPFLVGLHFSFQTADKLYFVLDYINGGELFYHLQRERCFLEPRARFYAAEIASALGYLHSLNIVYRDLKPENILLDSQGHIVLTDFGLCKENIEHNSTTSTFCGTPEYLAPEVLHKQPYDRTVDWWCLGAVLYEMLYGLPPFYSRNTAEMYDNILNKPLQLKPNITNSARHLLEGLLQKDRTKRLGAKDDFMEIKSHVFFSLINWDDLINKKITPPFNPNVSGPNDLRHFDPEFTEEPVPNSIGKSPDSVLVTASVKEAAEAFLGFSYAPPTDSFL
As to the kind of experiment: SGK1 protein kinase inhibition, filter binding method. Type of assay: biochemical. To be noted: read-out: SGK1 enzyme inhibition IC50. From the text:
Further assays are known from the literature and could easily be carried out by the person skilled in the art (see, for example, Dhanabal et al., Cancer Res. 59:189-197; Xin et al., J. Biol. Chem. 274:9116-9121; Sheu et al., Anticancer Res. 18:4435-4441; Ausprunk et al., Dev. Biol. 38:237-248; Gimbrone et al., J. Natl. Cancer Inst. 52:413-427; Nicosia et al., In Vitro 18:538-549).
The inhibition of SGK1 protein kinase can be determined in the filter binding method.

The next assay relates to LCMV. Also on record: species or system mice. The settings on record: mouse, in vivo.
The next assay has as its system colon carcinomas. Briefly: Chemically induced (DMH/DSS) colon carcinomas in mice. The settings on record: DMH/DSS-induced tumour genesis; 4.46 mg/g of feed (approx. 600 mg/kg) for 20 days, one week after the treatment; vs placebo. The class given is in vivo. As for the experimental part: To this end, colon tumours were induced chemically in the experimental animals (Wang J G, Wang D F, Lv B J, Si J M: A novel mouse model for colitis-associated colon carcinogenesis induced by 1,2-dimethylhydrazine and dextran sulfate sodium. World J Gastroenterol 2004; 10:2958-2962). Some of the experimental animals were subjected to three cycles of chemical tumour genesis at an age of 8 weeks. To this end, the animals were treated intraperitoneally with 20 mg/kg of 1,2-dimethylhydrazine (DMH; Sigma-Aldrich Corporation. St. Louis. Mo. USA). Starting one week later, distilled water containing 30 g/l of synthetic dextran sulfate sodium (DSS; molecular weight 5000; Wako Pure Chemical Industries Ltd. Japan) was administered to the animals three times for 7 days and distilled water was administered for a further 14 days (total duration 3×(1+2 weeks)=9 weeks in total). The remainder of the experimental animals (control animals) were instead supplied intraperitoneally by injection with 20 mg/kg of a 0.9% sodium chloride solution. All mice were anaesthetised with ether at the age of 22 weeks and subsequently killed.
One week after the treatment, either a placebo or the SGK1 inhibitor was administered for 20 days. The SGK1 inhibitor had been added to the feed in a mixing ratio of 4.46 mg/g of feed. This corresponds to an approximate dose of 600 mg/kg of body weight.

What is called IC50 is the concentration needed to halve the response being measured. `CCc1c(C(=O)NNC(=O)[C@@H](O)c2cc(F)cc(F)c2)ccc(O)c1C` [Ia, N′-[(S)-2-(3,5-Difluorophenyl)-2-hydroxyacetyl]-2-ethyl-4-hydroxy-3-methylbenzohydrazide]: the IC50 at SGK1 protein kinase is above 300 nM.
For the molecule `CCc1c(C(=O)NNC(=O)C(O)c2cc(F)cc(F)c2)ccc(O)c1C` (racemic) [I, N′-[2-(3,5-Difluorophenyl)-2-hydroxyacetyl]-2-ethyl-4-hydroxy-3-methylbenzohydrazide], the IC50 at SGK1 protein kinase was above 300 nM. Further, in the assay with LCMV, the bilirubin concentration entry is given as “significantly reduced” and the “concentration of alanine aminotransferase” value is given as “significantly reduced”. The “growth of colon tumours” value in the assay with colon carcinomas is recorded as “significantly inhibited”.
